Measurements taken from the supplement of paper PMC10307832.

How the values were obtained:
Assay in all cases: relative viability (nuclei count vs DMSO), 5 days (fraction); higher = more cells survive
[1] = compound: CC1=C(CC(=O)O)c2cc(F)ccc2/C1=C\c1ccc([S+](C)[O-])cc1 [Sulindac] + COc1cc2c(Oc3ccc(NC(=O)C4(C(=O)Nc5ccc(F)cc5)CC4)cc3F)ccnc2cc1OCCCN1CCOCC1 [Foretinib] (partner 0.25 µM)
Procedure, shortened: (§1)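 Cells from lung cancer lines were seeded into 1536-well plates and, one day later, dosed by pin tool. Treatments were either a single drug or a fixed dose of an anchor drug with five library-drug doses (not always all listed) in √10 steps. After 5 days, nuclei were stained in a one-step fixation (final 0.05% Triton X-100, 1% formaldehyde, 1 ug/ml Hoechst) and counted on 4× images, and relative viability is the treated-to-vehicle nuclei ratio, as the median of duplicate plates.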

[2] = compound: CN[C@@H]1C[C@H]2O[C@@](C)([C@@H]1OC)n1c3ccccc3c3c4c(c5c6ccccc6n2c5c31)C(=O)NC4 [Staurosporine] + COc1cc2c(Oc3ccc(NC(=O)C4(C(=O)Nc5ccc(F)cc5)CC4)cc3F)ccnc2cc1OCCCN1CCOCC1 [Foretinib] (partner 0.25 µM)
Procedure, shortened: as §1

[3] = compound: O=c1[nH]cc(F)c(=O)[nH]1 [5-Fluorouracil] + CC(C)C[C@H](NC(=O)[C@H](Cc1ccccc1)NC(=O)c1cnccn1)B(O)O [Bortezomib] (partner 0.002 µM)
Procedure, shortened: as §1

[4] = compound: O=c1[nH]cc(F)c(=O)[nH]1 [5-Fluorouracil] + CCNC(=O)c1noc(-c2cc(C(C)C)c(O)cc2O)c1-c1ccc(CN2CCOCC2)cc1 [Luminespib] (partner 0.01 µM)
Procedure, shortened: as §1

Cell Line | relative viability ([1]; first compound 0.08 µM) | relative viability ([1]; first compound 0.253 µM) | relative viability ([1]; first compound 0.8 µM) | relative viability ([1]; first compound 2.53 µM) | relative viability ([1]; first compound 8 µM) | relative viability ([2]; first compound 0.005 µM) | relative viability ([2]; first compound 0.01581 µM) | relative viability ([2]; first compound 0.05 µM) | relative viability ([2]; first compound 0.1581 µM) | relative viability ([2]; first compound 0.5 µM) | relative viability ([3]; first compound 0.02 µM) | relative viability ([3]; first compound 0.2 µM) | relative viability ([3]; first compound 0.6325 µM) | relative viability ([3]; first compound 2 µM) | relative viability ([4]; first compound 0.02 µM) | relative viability ([4]; first compound 0.2 µM) | relative viability ([4]; first compound 0.6325 µM) | relative viability ([4]; first compound 2 µM)
HCC-827 | 1.03 | 1.05 | 1.1 | 1.01 | 1.09 | 1.06 | 0.589 | 0.645 | 0.381 | 0.395 | 0.805 | 1.1 | 0.733 | 0.596 | 0.399 | 0.691 | 0.465 | 0.239
NCI-H727 | 0.789 | 0.93 |  | 0.898 | 0.826 | 0.652 | 0.542 | 0.428 | 0.37 | 0.29 | 1 | 1.01 | 0.776 | 0.782 | 0.329 | 0.402 | 0.345 | 0.295
CAL-12T | 1.22 | 1.22 | 0.911 | 1.12 | 1.27 | 0.523 | 0.319 | 0.186 | 0.168 | 0.121 | 1.13 | 1.05 | 0.911 | 0.751 | 0.299 | 0.34 | 0.363 | 0.3
PC-3 [JPC-3] | 1.12 | 1.11 | 1.14 | 1.09 | 1.05 | 1.07 | 0.483 | 0.525 | 0.359 | 0.4 | 0.841 | 0.84 | 0.762 | 0.643 | 0.66 | 0.753 | 0.621 | 0.524
NCI-H23 | 0.879 |  | 0.782 | 0.607 | 1.03 | 0.898 |  | 0.43 | 0.258 | 0.387 | 1.07 | 1.34 | 0.598 | 0.309 | 0.201 | 0.205 | 0.196 | 0.212
NCI-H838 | 1.05 | 1.19 | 1.03 | 1.06 | 1.22 | 0.51 | 0.228 | 0.208 | 0.185 | 0.0995 | 0.732 | 0.794 | 0.637 | 0.281 | 0.261 | 0.245 | 0.209 | 0.16
NCI-H1666 | 1.01 | 1.02 | 0.908 | 0.975 | 1.13 | 0.668 | 0.513 | 0.545 | 0.391 | 0.359 | 0.878 | 0.475 | 0.39 | 0.39 | 0.992 | 0.639 | 0.419 | 0.44
A-427 | 1.08 | 1.05 | 0.979 | 1.17 | 1.02 | 1.06 | 0.78 | 0.282 | 0.198 | 0.121 | 0.888 | 1.07 | 0.986 | 0.532 | 1.01 | 0.883 | 0.682 | 0.548
NCI-H460 | 1.3 | 1.12 | 0.667 | 1.02 | 1.08 | 0.972 | 0.85 | 0.755 | 0.161 | 0.013 | 1.34 | 0.488 | 0.141 | 0.0496 | 0.0365 | 0.0336 | 0.0342 | 0.0284
NCI-H441 | 0.992 | 1.15 | 0.86 | 1 | 1.24 | 0.822 | 0.503 | 0.354 | 0.215 | 0.194 | 0.513 | 0.408 | 0.482 | 0.303 | 0.447 | 0.39 | 0.384 | 0.242
ABC-1 | 1.02 | 0.96 | 1.02 | 0.867 | 1.33 | 0.394 | 0.367 | 0.249 | 0.269 | 0.151 | 0.251 | 0.274 | 0.361 | 0.375 | 0.577 | 0.531 | 0.533 | 0.465
NCI-H2085 | 0.763 | 0.987 | 0.882 | 0.914 | 1.08 | 0.516 | 0.437 | 0.324 | 0.195 | 0.26 | 1.09 | 1.13 | 0.995 | 0.738 | 0.418 | 0.456 | 0.445 | 0.349
NCI-H650 | 0.926 | 1 | 0.997 | 0.994 | 1.19 | 0.687 | 0.273 | 0.257 | 0.289 | 0.256 | 0.894 | 0.622 | 0.517 | 0.529 | 0.766 | 0.533 | 0.348 | 0.277
NCI-H3122 | 1.06 | 0.936 | 1.01 | 1.01 | 0.981 | 1.03 |  | 0.76 | 0.695 | 0.371 | 0.998 | 0.897 | 0.353 | 0.298 | 0.104 | 0.09 | 0.095 | 0.088
LCLC-103H | 0.817 | 0.822 | 0.681 | 0.734 | 0.916 | 0.668 | 0.178 | 0.171 | 0.161 | 0.142 | 0.99 | 1.18 | 0.931 | 0.632 | 0.951 | 0.999 | 0.521 | 0.28
NCI-H596 | 0.796 | 1.05 | 0.928 | 0.97 | 0.892 | 1.32 | 0.839 | 0.587 | 0.297 | 0.305 | 1.14 | 0.794 | 0.694 | 0.597 | 1 | 0.728 | 0.726 | 0.542
NCI-H1755 | 0.976 | 0.974 | 0.848 | 0.916 | 1.03 | 0.729 | 0.471 | 0.261 | 0.189 | 0.164 | 0.975 | 0.442 | 0.397 | 0.311 | 0.57 | 0.346 | 0.331 | 0.219
EPLC-272H | 0.669 | 0.763 |  | 0.711 | 0.745 | 0.608 | 0.136 | 0.174 | 0.0912 | 0.121 | 0.891 | 0.733 | 0.376 | 0.254 | 0.313 | 0.296 | 0.208 | 0.198
